Results taken from ChEMBL document CHEMBL1287678, “5-{2-[4-(2-methyl-5-quinolinyl)-1-piperazinyl]ethyl}-2(1H)-quinolinones and 3,4-dihydro-2(1H)-quinolinones: dual-acting 5-HT1 receptor antagonists and serotonin reuptake inhibitors. Part 3” (Bioorg Med Chem Lett, 2010).

Experiments:
[1] = molecular target: T1, 5-hydroxytryptamine receptor 1A (Homo sapiens, UniProt P08908); test: Antagonist activity at human 5-HT1A receptor expressed in HEK293 cells assessed as inhibition of GTPgammaS binding by scintillation proximity assay; type: functional, cell-based
T1 sequence (P08908 whole entry): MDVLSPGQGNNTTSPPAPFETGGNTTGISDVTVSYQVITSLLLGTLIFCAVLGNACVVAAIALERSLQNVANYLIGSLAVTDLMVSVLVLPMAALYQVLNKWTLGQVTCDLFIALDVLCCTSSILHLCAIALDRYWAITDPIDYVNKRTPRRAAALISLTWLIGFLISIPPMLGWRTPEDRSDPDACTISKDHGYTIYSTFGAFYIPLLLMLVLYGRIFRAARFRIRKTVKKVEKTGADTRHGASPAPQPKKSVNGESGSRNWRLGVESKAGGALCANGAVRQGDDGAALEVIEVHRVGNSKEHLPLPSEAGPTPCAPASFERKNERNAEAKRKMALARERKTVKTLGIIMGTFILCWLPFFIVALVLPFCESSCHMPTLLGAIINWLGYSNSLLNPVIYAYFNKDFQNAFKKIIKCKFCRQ

[2] = molecular target: T2, 5-hydroxytryptamine receptor 1B (Homo sapiens, UniProt P28222); test: Intrinsic activity at human 5-HT1B receptor expressed in CHO cells assessed as effect on GTPgammaS binding by scintillation proximity assay relative to 5HT; type: functional, cell-based
T2 sequence (P28222 whole entry): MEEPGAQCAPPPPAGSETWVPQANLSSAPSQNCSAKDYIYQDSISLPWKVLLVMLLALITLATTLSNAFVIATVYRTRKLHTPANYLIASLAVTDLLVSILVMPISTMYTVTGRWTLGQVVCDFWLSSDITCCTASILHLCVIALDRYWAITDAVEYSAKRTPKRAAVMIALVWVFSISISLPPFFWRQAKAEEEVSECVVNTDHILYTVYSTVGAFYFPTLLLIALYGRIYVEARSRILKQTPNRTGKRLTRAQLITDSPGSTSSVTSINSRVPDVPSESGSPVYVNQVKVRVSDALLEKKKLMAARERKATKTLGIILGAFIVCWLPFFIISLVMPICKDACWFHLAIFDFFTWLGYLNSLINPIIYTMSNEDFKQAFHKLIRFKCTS

[3] = molecular target: Sodium-dependent serotonin transporter (Homo sapiens, UniProt P31645); test: Displacement of [3H]-citalopram in human SERT expressed in LLCPK cells by filtration assay; type: cell-based
Sodium-dependent serotonin transporter, sequence (P31645 whole entry): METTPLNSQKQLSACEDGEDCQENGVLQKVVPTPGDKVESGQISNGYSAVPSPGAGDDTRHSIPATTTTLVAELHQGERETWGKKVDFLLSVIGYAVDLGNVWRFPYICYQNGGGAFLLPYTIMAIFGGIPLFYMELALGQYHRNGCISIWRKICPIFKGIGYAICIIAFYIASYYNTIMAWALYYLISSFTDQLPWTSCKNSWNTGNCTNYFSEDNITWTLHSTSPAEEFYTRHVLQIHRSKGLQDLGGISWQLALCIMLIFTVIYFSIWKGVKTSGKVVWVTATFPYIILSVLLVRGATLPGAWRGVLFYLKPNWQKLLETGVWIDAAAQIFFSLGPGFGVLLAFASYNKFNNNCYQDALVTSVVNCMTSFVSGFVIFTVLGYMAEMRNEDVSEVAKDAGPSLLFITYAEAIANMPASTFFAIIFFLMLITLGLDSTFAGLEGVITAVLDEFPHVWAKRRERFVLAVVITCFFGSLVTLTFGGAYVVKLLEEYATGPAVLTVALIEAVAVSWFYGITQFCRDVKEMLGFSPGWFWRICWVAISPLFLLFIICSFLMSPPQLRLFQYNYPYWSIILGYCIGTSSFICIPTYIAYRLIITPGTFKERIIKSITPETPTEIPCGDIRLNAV

[4] = molecular target: T3, 5-hydroxytryptamine receptor 1D (Homo sapiens, UniProt P28221); test: Intrinsic activity at human 5-HT1D receptor expressed in CHO cells assessed as effect on GTPgammaS binding by scintillation proximity assay relative to 5HT; type: functional, cell-based
T3 sequence (P28221 whole entry): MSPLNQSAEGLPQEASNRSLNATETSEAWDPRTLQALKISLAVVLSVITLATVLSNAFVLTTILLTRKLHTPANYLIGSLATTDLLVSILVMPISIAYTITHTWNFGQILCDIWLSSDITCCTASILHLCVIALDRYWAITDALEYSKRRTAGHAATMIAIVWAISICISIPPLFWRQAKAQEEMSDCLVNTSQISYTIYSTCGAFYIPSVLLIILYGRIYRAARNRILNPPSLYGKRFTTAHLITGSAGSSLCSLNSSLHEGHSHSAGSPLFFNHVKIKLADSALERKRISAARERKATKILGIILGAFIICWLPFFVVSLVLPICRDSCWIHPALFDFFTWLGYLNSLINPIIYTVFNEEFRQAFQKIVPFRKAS

[5] = molecular target: T2, 5-hydroxytryptamine receptor 1B; test: Antagonist activity at human 5-HT1B receptor expressed in CHO cells assessed as inhibition of GTPgammaS binding by scintillation proximity assay; type: functional, cell-based
[6] = molecular target: T4, 5-hydroxytryptamine receptor 1A (Homo sapiens) (UniProt P08908); test: Intrinsic activity at human 5-HT1A receptor expressed in HEK293 cells assessed as effect on GTPgammaS binding by scintillation proximity assay relative to 5HT; type: functional, cell-based
T4 sequence (whole entry): T1 sequence (P08908 whole entry)

[7] = molecular target: T3, 5-hydroxytryptamine receptor 1D; test: Antagonist activity at human 5-HT1D receptor expressed in CHO cells assessed as inhibition of GTPgammaS binding by scintillation proximity assay; type: functional, cell-based
[8] = molecular target: Voltage-gated inwardly rectifying potassium channel KCNH2 (Homo sapiens, UniProt Q12809); test: Displacement of [3H]-dofetilide in human hERG expressed in CHO cells by proximity assay; type: cell-based
Voltage-gated inwardly rectifying potassium channel KCNH2, sequence (Q12809 whole entry): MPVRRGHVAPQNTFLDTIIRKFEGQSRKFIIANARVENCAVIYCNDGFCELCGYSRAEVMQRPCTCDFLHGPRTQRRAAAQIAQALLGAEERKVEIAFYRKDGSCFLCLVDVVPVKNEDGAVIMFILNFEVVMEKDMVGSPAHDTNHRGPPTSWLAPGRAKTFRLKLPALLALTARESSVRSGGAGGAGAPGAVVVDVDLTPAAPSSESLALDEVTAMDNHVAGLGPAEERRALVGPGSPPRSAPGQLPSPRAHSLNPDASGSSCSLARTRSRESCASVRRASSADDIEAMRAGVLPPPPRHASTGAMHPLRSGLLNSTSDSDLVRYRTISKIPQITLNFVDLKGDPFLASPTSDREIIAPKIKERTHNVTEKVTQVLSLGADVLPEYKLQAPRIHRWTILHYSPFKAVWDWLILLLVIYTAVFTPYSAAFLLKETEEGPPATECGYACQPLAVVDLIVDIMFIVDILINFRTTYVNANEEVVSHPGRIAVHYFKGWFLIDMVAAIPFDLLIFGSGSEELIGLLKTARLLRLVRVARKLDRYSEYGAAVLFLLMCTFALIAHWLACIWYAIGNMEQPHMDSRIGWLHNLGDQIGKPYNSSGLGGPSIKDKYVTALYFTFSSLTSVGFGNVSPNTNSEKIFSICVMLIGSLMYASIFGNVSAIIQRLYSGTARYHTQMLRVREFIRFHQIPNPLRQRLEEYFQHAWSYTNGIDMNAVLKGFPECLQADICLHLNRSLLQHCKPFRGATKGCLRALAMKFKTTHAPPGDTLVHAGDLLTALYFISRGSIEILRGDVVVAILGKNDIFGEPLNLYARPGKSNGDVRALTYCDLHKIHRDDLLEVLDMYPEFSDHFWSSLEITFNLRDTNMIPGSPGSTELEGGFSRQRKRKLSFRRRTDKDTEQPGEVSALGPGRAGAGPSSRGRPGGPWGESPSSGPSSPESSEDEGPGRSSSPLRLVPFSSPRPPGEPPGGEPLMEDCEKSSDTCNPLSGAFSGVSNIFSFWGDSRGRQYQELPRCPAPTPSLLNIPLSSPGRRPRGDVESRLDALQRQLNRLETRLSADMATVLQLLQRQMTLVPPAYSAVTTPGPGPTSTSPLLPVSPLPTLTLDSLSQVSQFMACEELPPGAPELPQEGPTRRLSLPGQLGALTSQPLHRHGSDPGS

[9] = system: Liver microsomes; test: Intrinsic clearance in human liver microsomes; type: ADME, Microsome
[10] = Blood clearance in rat at 0.5 mg/kg, iv and 1 mg/kg, po; type: ADME, organism-based; settings: whole blood
[11] = Oral bioavailability in rat at 1 mg/kg; type: ADME, organism-based; settings: in vivo
[12] = Ratio of drug level in brain to blood in rat at 0.5 mg/kg, iv and 1 mg/kg, po; type: ADME, organism-based; settings: brain / whole blood
[13] = Volume of distribution at steady state in rat at 0.5 mg/kg, iv and 1 mg/kg, po; type: ADME, organism-based; settings: in vivo, read-out: Vdss
[14] = Half life in rat at 0.5 mg/kg, iv and 1 mg/kg, po; type: ADME, organism-based; settings: in vivo
[15] = molecular target: T2, 5-hydroxytryptamine receptor 1B; test: Agonist activity at human 5-HT1B receptor expressed in CHO cells assessed as stimulation of GTPgammaS binding by scintillation proximity assay; type: functional, cell-based
[16] = molecular target: T1, 5-hydroxytryptamine receptor 1A; test: Agonist activity at human 5-HT1A receptor expressed in HEK293 cells assessed as stimulation of GTPgammaS binding by scintillation proximity assay; type: functional, cell-based
[17] = molecular target: T3, 5-hydroxytryptamine receptor 1D; test: Agonist activity at human 5-HT1D receptor expressed in CHO cells assessed as stimulation of GTPgammaS binding by scintillation proximity assay; type: functional, cell-based

SMILES	Ki [1] [nM]	Intrinsic activity [2]	Ki [3] [nM]	Intrinsic activity [4]	Ki [5] [nM]	Intrinsic activity [6]	Ki [7] [nM]	Ki [8] [nM]	CL [9] [mL/min/g]	clearance [10] [mL/min/kg]	bioavailability [11] [%]	Kp [12]	Vd [13] [L/kg]	half-life [14] [h]	EC50 [15] [nM]	EC50 [16] [nM]	EC50 [17] [nM]
Cc1ccc2c(N3CCN(CCc4cccc5c4CCC(=O)N5C)CC3)cccc2n1	0.631	0	12.6	0	0.794	0	0.0794	3980	–	–	–	–	–	–	–	–	–
Cc1ccc2c(N3CCN(CCc4cccc5c4OCC(=O)N5C)CC3)cccc2n1	–	–	–	–	–	–	–	–	2.4	–	–	–	–	–	–	–	–
Cc1ccc2c(N3CCN(CCc4cccc5c4ccc(=O)n5C)C(C)(C)C3)cccc2n1	1.58	–	–	0	0.501	0.3	0.501	–	3.8	34	27	1.1	0.8	0.6	–	–	–
Cc1ccc2c(N3CCN(CCc4cccc5c4CCC(=O)N5)CC3)cccc2n1	–	0	–	0	–	0	–	–	–	–	–	–	–	–	–	–	–
Cc1ccc2c(N3CCN(CCc4c(F)ccc5c4ccc(=O)n5C)CC3)cccc2n1	0.398	0	12.6	0	31.6	0	0.398	31600	–	–	–	–	–	–	–	–	–
Cc1ccc2c(N3CCN(CCc4c(C)ccc5c4ccc(=O)n5C)CC3)cc(F)cc2n1	1.26	–	10	0	> 1000	0	2	2510	1.6	46	82	–	2.4	0.7	–	–	–
Cc1ccc2c(N3CCN(CCc4cccc5c4ccc(=O)n5C)[C@@H](C)C3)cccc2n1	3.16	0	2.51	0	398	0	5.01	5010	1.5	32	12	1.3	1.2	0.6	–	–	–
Cc1ccc2c(C3CCN(CCc4c(C)ccc5c4ccc(=O)n5C)CC3)cccc2n1	1.26	–	1.26	0	> 1000	0	39.8	2000	0.9	31	82	0.8	3.4	1.4	–	–	–
Cc1ccc2c(N3CCN(CCc4c(C)ccc5c4ccc(=O)n5C)CC3)cccc2n1	0.631	0.4	12.6	0	–	0	2	3980	1.5	28	88	0.5	2.3	1.1	63.1	–	–
Cc1ccc2c(N3CCN(CCc4c(C)ccc5c4ccc(=O)n5C)[C@H](C)C3)cccc2n1	1.26	–	3.98	0	> 1000	0	2.51	7940	1.2	21	31	0.4	2.1	1.5	–	–	–
Cc1ccc2c(N3CCN(CCc4c(C)ccc5c4ccc(=O)n5C)[C@@H](C)C3)cccc2n1	3.98	–	0.501	0	> 1000	0	20	1580	< 0.5	46	35	1.7	2.7	1.2	–	–	–
Cc1ccc2c(N3CCN(CCc4c(Cl)ccc5c4ccc(=O)n5C)CC3)cccc2n1	3.98	0.5	15.8	0	–	0	3.98	–	–	–	–	–	–	–	316	–	–
Cc1ccc2c(N3CCN(CCc4c(C)ccc5c4CCC(=O)N5C)CC3)cccc2n1	0.631	0.4	25.1	0	–	0	1	794	1.3	9	83	0.4	2	3	398	–	–
Cc1ccc2c(N3CCN(CCc4cccc5[nH]c(=O)ccc45)CC3)cccc2n1	–	0	–	0	–	0	–	–	–	–	–	–	–	–	–	–	–
Cc1ccc2c(N3CCN(CCc4cccc5c4OCC(=O)N5)CC3)cccc2n1	–	–	–	–	–	–	–	–	1	–	–	–	–	–	–	–	–
Cc1ccc2c(N3CCN(CCc4cccc5c4ccc(=O)n5C)CC3)cccc2n1	–	0	2.51	0.7	0.794	0.4	–	10000	1.2	32	37	1.1	2.1	1.3	–	0.0316	1
Cc1ccc2c(N3CCN(CCc4c(C)ccc5[nH]c(=O)ccc45)CC3)cccc2n1	1	0.4	100	0	–	0	–	–	–	–	–	–	–	–	501	–	–
Cc1ccc2c(N3CCN(CCc4c(C)ccc5c4ccc(=O)n5C)[C@@H](C)C3)cc(F)cc2n1	3.98	–	1	–	> 1000	0	> 1000	–	–	–	–	–	–	–	–	–	–
Cc1ccc2c(N3CCN(CCc4cccc5c4ccc(=O)n5C)[C@H](C)C3)cc(F)cc2n1	1	0	0.501	0	0.794	0	0.126	10000	–	–	–	–	–	–	–	–	–
Cc1ccc2c(N3CCN(CCc4c(C)ccc5c4CCC(=O)N5)CC3)cccc2n1	0.794	0.4	50.1	0.5	–	0.3	–	3980	< 0.5	7	73	0.8	3	5.4	200	–	5.01
Cc1ccc2c(N3CCN(CCc4cccc5c4ccc(=O)n5C)[C@@H](C)C3)cc(F)cc2n1	1	0	0.501	0	316	0	1.26	6310	0.8	34	34	1.2	2	1.6	–	–	–
